According to patent publication US9409976B2, “CDIM binding proteins and uses thereof” (IGM BIOSCIENCES, INC., priority 2012, dated 2016):
Where two headings read alike, the source gives them in different places.

System: B cells
Assay: Combination of agents with CDIM binding proteins, cytotoxicity to B cells
Format: cell-based
[1] = combination with CDIM binding proteins

| Compound | Effect of combination with CDIM binding proteins [1] | Effect of combination with CDIM binding proteins (combination with CDIM binding proteins, listed as vincristine) | Effect of combination with CDIM binding proteins |
| --- | --- | --- | --- |
| COC(=O)Nc1nc2ccc(C(=O)c3cccs3)cc2[nH]1 [Nocodazole] | Synergistic Effect | – | – |
| CC[C@]1(O)C[C@H]2CN(CCc3c([nH]c4ccccc34)[C@@](C(=O)OC)(c3cc4c(cc3OC)N(C=O)[C@H]3[C@@](O)(C(=O)OC)[C@H](OC(C)=O)[C@]5(CC)C=CCN6CC[C@]43[C@@H]65)C2)C1 [Vincristine] | Synergistic Effect | enhanced degree of cytotoxicity to B cells when compared to the additive effect of each single agent alone | – |
| COc1cccc2c1C(=O)c1c(O)c3c(c(O)c1C2=O)C[C@@](O)(C(C)=O)C[C@@H]3O[C@H]1C[C@H](N)[C@H](O)[C@H](C)O1 [Daunorubicin] | – | – | Additive Effect |
| Nc1ccn([C@@H]2O[C@H](CO)[C@@H](O)[C@@H]2O)c(=O)n1 [Ara-C (Cytarabine), Cytarabine] | Additive Effect | – | – |
| COc1cc([C@@H]2c3cc4c(cc3[C@@H](O[C@@H]3O[C@@H]5CO[C@@H](C)O[C@H]5[C@H](O)[C@H]3O)[C@H]3COC(=O)[C@H]23)OCO4)cc(OC)c1O [Etoposide (VP-16), Etoposide] | Additive Effect | – | – |
| CC(=O)O[C@H]1C(=O)[C@@]2(C)[C@H]([C@H](OC(=O)c3ccccc3)[C@]3(O)C[C@H](OC(=O)[C@H](O)[C@@H](NC(=O)c4ccccc4)c4ccccc4)C(C)=C1C3(C)C)[C@]1(OC(C)=O)CO[C@@H]1C[C@@H]2O [Paclitaxel (Taxol), Paclitaxel] | Possible/Undermined | – | – |
| COc1cc2c(c(OC)c1OC)-c1ccc(OC)c(=O)cc1[C@@H](NC(C)=O)CC2 [Colchisine] | Synergistic Effect | – | – |
